The target in data set [1] is T1, GFP-AR (Homo sapiens, UniProt P10275).
T1 construct: expressed in transfected cells; also PC3 and LNCaP (transient)
T1 sequence (P10275 1-920): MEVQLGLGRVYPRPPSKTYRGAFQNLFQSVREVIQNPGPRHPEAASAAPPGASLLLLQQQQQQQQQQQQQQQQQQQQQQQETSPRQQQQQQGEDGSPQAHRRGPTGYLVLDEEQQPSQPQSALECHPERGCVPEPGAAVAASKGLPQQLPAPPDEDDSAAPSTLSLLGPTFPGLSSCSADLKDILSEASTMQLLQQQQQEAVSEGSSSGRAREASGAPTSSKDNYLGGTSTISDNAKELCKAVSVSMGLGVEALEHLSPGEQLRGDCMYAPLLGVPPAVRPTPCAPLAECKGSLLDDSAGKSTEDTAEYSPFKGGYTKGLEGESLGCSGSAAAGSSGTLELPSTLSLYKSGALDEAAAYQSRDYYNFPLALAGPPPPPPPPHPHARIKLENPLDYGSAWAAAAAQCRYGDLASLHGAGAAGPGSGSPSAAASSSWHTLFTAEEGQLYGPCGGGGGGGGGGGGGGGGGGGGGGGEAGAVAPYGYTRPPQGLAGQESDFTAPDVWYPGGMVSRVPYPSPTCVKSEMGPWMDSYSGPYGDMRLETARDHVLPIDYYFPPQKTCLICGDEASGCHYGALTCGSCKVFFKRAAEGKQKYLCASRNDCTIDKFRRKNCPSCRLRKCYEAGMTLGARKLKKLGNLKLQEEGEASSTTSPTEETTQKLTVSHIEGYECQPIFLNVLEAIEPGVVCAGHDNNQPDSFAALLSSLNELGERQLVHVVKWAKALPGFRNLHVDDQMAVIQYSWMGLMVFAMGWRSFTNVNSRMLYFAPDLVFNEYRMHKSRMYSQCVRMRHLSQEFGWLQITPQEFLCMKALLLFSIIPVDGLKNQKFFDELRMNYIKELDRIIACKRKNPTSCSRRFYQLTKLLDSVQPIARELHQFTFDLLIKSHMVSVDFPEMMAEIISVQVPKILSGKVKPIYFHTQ
The data set can be described thus: Localization of transiently transfected GFP-AR by fluorescence microscopy. The class given is cell-based. Conditions: for GFP-AR localization: 1 nM. On the procedure:
FIGS. 2A and 2B. Localization of GFP-AR in AR-negative PC3, androgen-sensitive LNCaP, and CRPC C4-2 cells. […] PC3, LNCaP, and C4-2 cells were transfected with GFP-AR and localization was assessed in ligand-free conditions or in the presence of mibolerone by fluorescence microscopy within 24 hours of transfection. The results in FIG. 2B are from five transfections for each cell line in the absence of androgen. At least 50 cells were counted after each transfection. Error bars represent ±SEM.
(§1) FIGS. 3A and 3B. […] FIG. 3A. […] Localization was assessed by fluorescence microscopy 4 hours after treatment. FIG. 3B.
FIGS. 6A, 6B, 6C and 6D. FIG. 6A. […] FIG. 6B. […] C4-2 cells were transfected with GFP-AR and subcellular localization of GFP-AR was determined after overnight treatment using fluorescent microscopy. FIG. 6C. Quantitative analysis of results in FIG. 6B. […] FIG. 6D. […] Endogenous AR was detected by immunofluorescent staining using AR antibody N-20 (Santa Cruz Biotechnology). Nuclei were stained with Hoechst.
A prerequisite for AR transcriptional activity is its nuclear localization. To determine whether the subcellular localization of AR was altered during the progression to castration-resistance, AR-negative PC3 prostate cancer cells, androgen-sensitive LNCaP cells and castration-resistant C4-2 cells were transfected with AR tagged to green fluorescent protein (GFP) and localization was assessed by fluorescence microscopy in hormone-free conditions.
Hsp90 plays an important role in ligand-induced AR nuclear translocation. […] To determine if the effect of hsp90 inhibition on endogenous AR in C4-2 cells was similar to its effect on transfected GFP-AR, immunofluorescence experiments were performed.

The target in data set [2] is T1, GFP-AR. Description: GFP-AR localization in stably transfected C4-2-GFP-AR sublines / high throughput screen assay. The class given is cell-based. Conditions: 5 uM, 24 hours; C4-2 stably transfected with GFP-AR; charcoal-stripped FBS medium.
Description: The images were acquired 24 hours after the treatment of docetaxel at 5 uM or vehicle DMSO. C4-2 cells stably transfected with GFP-AR were changed to phenol red-free RPMI with 10% charcoal-stripped FBS medium before the addition of docetaxel. Nuclei of the cells were stained with Hoechst dye. Images were acquired by fluorescent microscopy.
Localization of GFP-AR signal was assessed by fluorescence microscopy overnight after treatment.
The C4-2-GFP-AR subclone was cultured in 384-well plates in complete RPMI media. We used regular complete media in high throughput assay because it contains castration levels of androgens. […] Images of GFP signals and Hoechst signals were acquired into separate channels on a Cellomics ArrayScan® V^TI system. Both nuclear and cytoplasmic GFP signals were quantified with the ArrayScan V^TI, which uses an image-based auto-focus system, and has the capability of imaging up to six excitation and emission channels. […] The Cellomics compartmental analysis algorithm was used to quantify the relative distribution of the GFP-AR between nuclear and cytoplasmic cellular compartments. […] The mask was eroded to reduce cytoplasmic contamination within the nuclear area, and the reduced mask was used to quantify the amount of target channel GFP fluorescence within the nucleus. […]
Another data set deals with AR (Homo sapiens, UniProt P10275). Conditions: reported in earlier studies; cited from earlier work.
Data set [3] concerns castration resistant C4-2 xenograft tumors. The data set can be described thus: C4-2 xenograft tumors in castrated SCID mice. The class given is in vivo. Here is the method: FIGS. 9A and 9B. FIG. 9A. SID 14730725 inhibits the growth of castration resistant C4-2 xenograft tumors. C4-2 tumors were established by sc injection of 1×10^6 cells resuspended in 0.25 ml RPMI complete media mixed with 0.25 ml of Matrigel into young adult male SCID mice. SCID mice were castrated and randomized when C4-2 tumor volume reach ˜200 ul. Mice received s.c. delivery of SID 14730725 (50 mg/Kg body weight) or vehicle control (corn oil) every other day for 2 weeks, beginning 4 days after castration. Each group consisted of 7 mice. Tumor volumes were measured using micro-calipers and calculated using the formula (length×width^2)/2. FIG. 9B. Body weight of animals was measured every other day. Bars represent the mean±SEM; **p<0.01; Red lines represent data from the animals treated with SID 14730725.

In the next data set the test system is PC3 cells. Description: Cell survival, crystal violet staining, PC3. Type of data set: cell-based. Conditions: 48 hrs. Here is the method: (§2) FIGS. 8A and 8B. Effect of SID 14730725 and SID 3712502 on survival of PC3 (FIG. 8A) and C4-2 cells (FIG. 8B). PC3 or C4-2 cells were plated in 12-well plates at 2,500 cell per well in RPMI 1640 complete medium. After 24 hrs, the cells were treated with SID 14730725 or SID 3712502 at the indicated concentrations for 48 hrs. The wells were washed with PBS thrice and fixed in 0.5% crystal Violet in methanol. C=control; treated with vehicle DMSO.

The target of data set [4] is T2, endogenous AR (Homo sapiens, UniProt P10275, T878A).
T2 construct: endogenous in cells; host or cells: C4-2
T2 sequence (P10275 whole entry T878A): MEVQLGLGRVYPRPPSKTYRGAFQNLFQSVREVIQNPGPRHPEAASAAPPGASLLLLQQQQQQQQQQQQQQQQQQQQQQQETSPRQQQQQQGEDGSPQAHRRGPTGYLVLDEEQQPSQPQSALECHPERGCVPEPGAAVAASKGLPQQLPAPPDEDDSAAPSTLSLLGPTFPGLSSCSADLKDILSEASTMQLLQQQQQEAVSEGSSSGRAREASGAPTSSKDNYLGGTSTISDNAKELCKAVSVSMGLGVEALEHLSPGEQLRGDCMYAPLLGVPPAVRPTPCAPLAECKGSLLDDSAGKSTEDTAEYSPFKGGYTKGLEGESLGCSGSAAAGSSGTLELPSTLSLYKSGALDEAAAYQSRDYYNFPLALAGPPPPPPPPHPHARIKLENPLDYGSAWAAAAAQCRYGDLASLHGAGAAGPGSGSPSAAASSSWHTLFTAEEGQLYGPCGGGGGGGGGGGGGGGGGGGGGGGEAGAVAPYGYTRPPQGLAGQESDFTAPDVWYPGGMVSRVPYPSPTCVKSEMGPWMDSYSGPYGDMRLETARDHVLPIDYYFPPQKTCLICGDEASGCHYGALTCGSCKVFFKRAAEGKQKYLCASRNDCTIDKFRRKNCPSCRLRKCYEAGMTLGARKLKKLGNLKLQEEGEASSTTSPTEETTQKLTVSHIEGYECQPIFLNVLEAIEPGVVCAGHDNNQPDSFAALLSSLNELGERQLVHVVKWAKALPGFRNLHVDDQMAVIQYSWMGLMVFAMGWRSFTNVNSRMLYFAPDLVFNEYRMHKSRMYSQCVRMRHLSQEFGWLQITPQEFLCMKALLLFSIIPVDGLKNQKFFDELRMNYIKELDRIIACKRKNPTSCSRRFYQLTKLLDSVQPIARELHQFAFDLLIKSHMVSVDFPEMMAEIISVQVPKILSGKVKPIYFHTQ
Description: Endogenous AR nuclear localization in C4-2 cells by immunofluorescence. The class given is cell-based. As to conditions: AR antibody N-20. Here is the method: as §1
(§3) FIGS. 6A, 6B, 6C and 6D. FIG. 6A. Structures of compounds SID 14730725 (3-(4-Ethoxy-phenyl)-6,7-dihydro-5H-pyrrolo[1,2-a]imidazole), SID 14742211 (3-(4-Chloro-phenyl)-6,7-dihydro-5H-pyrrolo[1,2-a]imidazole) and SID 3712502 (2-[(3,5-dimethyl-1,2-oxazol-4-yl)methylsulfanyl]-1-[4-(2,3-dimethylphenyl)piperazin-1-yl]ethanone). FIG. 6B. Effect of SID 14730725 and SID 3712502 at indicated concentrations (uM) on nuclear localization of AR in castration-resistant C4-2 prostate cancer cells cultured in complete RPMI media with 10% FBS. C4-2 cells were transfected with GFP-AR and subcellular localization of GFP-AR was determined after overnight treatment using fluorescent microscopy. FIG. 6C. Quantitative analysis of results in FIG. 6B. The percent of transfected cells displaying predominant nuclear localization of GFP-AR at in the presence of various concentrations of SID 14730725 and SID 3712502 were determined. FIG. 6D. SID 14730725 inhibited endogenous AR nuclear localization in C4-2 cells. Endogenous AR was detected by immunofluorescent staining using AR antibody N-20 (Santa Cruz Biotechnology). Nuclei were stained with Hoechst.
(§4) Hsp90 plays an important role in ligand-induced AR nuclear translocation. […]

A further data set addresses T3, GFP-GR (Homo sapiens, UniProt P04150).
T3 construct: expressed in transfected cells; host or cells: C4-2
The data set can be described thus: GFP-GR nuclear localization in transfected C4-2 cells. Conditions: co-treated with 0.5 μM Dexamethasone, 24 hours. The class given is cell-based. Here is the method: (§5) FIG. 7. The effect of SID 14730725 and SID 3712502 on nuclear localization of GFP-ER (Top panel) and GFP-GR (Bottom panel) in C4-2 cells. C4-2 cells were transfected with GFP-ER or GFP-GR overnight. The following day the cells were treated with different concentrations (uM) of the small molecules. The cells transfected with GFP-GR were co-treated with 0.5 μM Dexamethasone. Cells were imaged 24 hours after the treatment with the small molecules.

The target of a further data set is T4, GFP-ER (Homo sapiens, UniProt P03372).
T4 construct: expressed in transfected cells; host or cells: C4-2
T4 sequence (P03372 whole entry): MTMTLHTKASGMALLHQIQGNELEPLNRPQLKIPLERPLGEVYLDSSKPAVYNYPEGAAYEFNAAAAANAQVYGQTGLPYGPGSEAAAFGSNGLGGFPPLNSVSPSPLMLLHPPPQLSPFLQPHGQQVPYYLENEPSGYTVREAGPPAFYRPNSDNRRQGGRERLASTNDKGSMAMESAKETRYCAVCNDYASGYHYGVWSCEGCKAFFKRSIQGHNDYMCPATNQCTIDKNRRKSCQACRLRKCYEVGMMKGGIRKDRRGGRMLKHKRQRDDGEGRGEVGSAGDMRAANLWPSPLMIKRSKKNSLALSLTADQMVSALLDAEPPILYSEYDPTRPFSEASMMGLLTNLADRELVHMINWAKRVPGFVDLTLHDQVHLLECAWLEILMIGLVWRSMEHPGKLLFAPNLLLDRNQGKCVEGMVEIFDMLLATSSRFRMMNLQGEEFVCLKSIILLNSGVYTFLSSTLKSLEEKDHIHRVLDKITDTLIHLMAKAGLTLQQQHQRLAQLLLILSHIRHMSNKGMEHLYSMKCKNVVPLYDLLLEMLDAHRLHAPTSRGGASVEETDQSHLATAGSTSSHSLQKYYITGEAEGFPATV
The data set can be described thus: GFP-ER nuclear localization in transfected C4-2 cells. Type of data set: cell-based. Conditions: 24 hours. Here is the method: as §5

The subject of a further data set is C4-2 cells. Description: Cell survival, crystal violet staining, C4-2. The class given is cell-based. As to conditions: 48 hrs. Here is the method:
as §2

For data set [5], the system named is endogenous AR. The data set can be described thus: Endogenous AR nuclear localization in C4-2 cells by immunofluorescence. The class given is cell-based. As to conditions: 300 nM, hormone-free. Here is the method: as §1, §3, §4

T3 sequence (P04150 whole entry): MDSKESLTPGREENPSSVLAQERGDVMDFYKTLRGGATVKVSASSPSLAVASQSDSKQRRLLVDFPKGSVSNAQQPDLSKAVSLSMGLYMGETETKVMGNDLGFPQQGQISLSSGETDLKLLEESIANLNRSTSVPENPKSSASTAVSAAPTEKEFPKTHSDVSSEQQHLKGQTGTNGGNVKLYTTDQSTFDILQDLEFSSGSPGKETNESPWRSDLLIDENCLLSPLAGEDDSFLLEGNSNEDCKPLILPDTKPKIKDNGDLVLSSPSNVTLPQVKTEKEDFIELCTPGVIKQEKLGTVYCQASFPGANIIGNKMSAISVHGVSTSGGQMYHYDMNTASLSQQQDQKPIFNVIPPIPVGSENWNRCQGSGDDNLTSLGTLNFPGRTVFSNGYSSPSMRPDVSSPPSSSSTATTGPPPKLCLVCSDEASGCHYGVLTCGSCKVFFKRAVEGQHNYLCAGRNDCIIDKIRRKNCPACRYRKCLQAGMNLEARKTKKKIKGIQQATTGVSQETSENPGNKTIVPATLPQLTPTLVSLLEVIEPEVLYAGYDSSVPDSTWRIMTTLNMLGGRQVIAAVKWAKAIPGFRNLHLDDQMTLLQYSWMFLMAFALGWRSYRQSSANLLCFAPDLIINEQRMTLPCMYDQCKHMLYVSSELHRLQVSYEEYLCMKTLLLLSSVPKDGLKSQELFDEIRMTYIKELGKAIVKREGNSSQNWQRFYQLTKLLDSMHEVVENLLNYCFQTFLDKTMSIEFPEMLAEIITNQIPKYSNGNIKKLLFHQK

Take `C[C@@H]1C[C@H]2O[C@@H]2/C=C\C=C\C(=O)Cc2c(Cl)c(O)cc(O)c2C(=O)O1` [radicicol]: the “nuclear localization of GFP-AR” value on GFP-AR [1] (C4-2 cells, data not shown) is “prevented”.

`CC(=O)O[C@@]12CO[C@@H]1C[C@H](O)[C@@]1(C)C(=O)[C@H](O)C3=C(C)[C@@H](OC(=O)[C@H](O)[C@@H](NC(=O)OC(C)(C)C)c4ccccc4)C[C@@](O)([C@@H](OC(=O)c4ccccc4)[C@H]21)C3(C)C` [docetaxel]: on GFP-AR [2], the “AR nuclear localization in castration-resistant C4-2 cells” value is on record as “no significant effect”. In addition, the AR nuclear translocation entry at AR is listed as “can inhibit androgen-dependent AR nuclear translocation”.

Take `C[C@@H]1CC2=CC(=O)CC[C@@H]2[C@H]2CC[C@@]3(C)[C@@H](CC[C@]3(C)O)[C@@H]21` [mibolerone]: the GFP-AR localization result on GFP-AR [1] (C4-2 cells), on GFP-AR [1] (LNCaP cells) and at GFP-AR [1] (PC3 cells) was “induced complete nuclear localization” in each case.

As to `CCOc1ccc(-c2cnc3n2CCC3)cc1` [SID 14730725, 3-(4-Ethoxy-phenyl)-6,7-dihydro-5H-pyrrolo[1,2-a]imidazole], the “blocking AR nuclear localization, dependence on androgen level” value at GFP-AR [1] (absence or very low levels of androgens) is on record as “more effective in blocking AR nuclear localization in the absence or in the presence of very low levels of androgens”. Besides, at GFP-AR [1] (transfected C4-2 cells, complete RPMI with 10% FBS, overnight treatment), the GFP-AR nuclear localization result is reported as “effectively inhibited”. Moreover, the “body weight of injected mice” value in data set [3] (50 mg/Kg s.c. every other day) is listed as “did not affect the body weight”. The “growth of C4-2 xenograft tumor” value in data set [3] (50 mg/Kg s.c. every other day for 2 weeks, castrated SCID mice) is “able to inhibit the growth of a C4-2 xenograft tumor with statistical significance”. Also, the cytotoxicity entry in the data set on PC3 cells and in the data set with C4-2 cells was “little or no cytotoxicity” throughout. At endogenous AR [4], the “endogenous AR nuclear localization” value is reported as “inhibited”. For the same compound, the “localization of GFP-GR” value at GFP-GR was “no effect”. Also, at GFP-ER, the “localization of GFP-ER” value is recorded as “no effect”.

As for `C=CCNC1=C2C[C@@H](C)C[C@H](OC)[C@H](O)[C@@H](C)/C=C(\C)[C@H](OC(N)=O)[C@@H](OC)/C=C\C=C(/C)C(=O)NC(=CC1=O)C2=O` [17-AAG, reference compound], the “endogenous AR nuclear expression” value in the data set on endogenous AR [5] is given as “a decrease in nuclear AR expression was observed”.

(Values after US10004730B2, “Small molecules targeting androgen receptor nuclear localization and/or level in prostate cancer” (University of Pittsburgh-Of the Commonwealth System of …, priority 2011, dated 2018).)
